≈ marks a conversion by molar mass, not a printed value. Where two headings read alike, the source gives them in different places.
Assays:
Assay type in all cases: cell-based
HIV-1 III B virus = assay: Anti-HIV activity assay (P24 antigen in MT-4 cells); conditions: for IC50: Human immunodeficiency virus 1, MT4, 96 h, read-out: HIV IC50; for anti-HIV viral activity: statement in words
[1] = tested on: Influenza A virus (hanfang359/95); assay: Determination of anti-influenza virus activity (CPE in MDCK cells); conditions: for IC50: Influenza A virus, MDCK, 36 h; for anti-influenza virus activities compared with the lead compound cajanine: statement in words
PC12 cells [2] = assay: Neuroprotective activity assay, serum-deprived injury to PC12 cells (MTT); conditions: for viability at 10 µM: Rattus norvegicus, PC-12, 48 h, read-out: serum-deprived (surviving PC12 cells, MTT 570 nm); for protective effect on serum-deprived injury to PC12 cells: statement in words
How it was run: (§1)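 PC12 cells on poly-lysine plated 24 h, then injured 48 h by serum-free DMEM or 4 μM rotenone with 10 μM test compound present during injury. Viability read by MTT (4 h), absorbance 570 nm.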

PC12 cells [3] = assay: Neuroprotective activity assay, rotenone injury to PC12 cells (MTT); conditions: for viability at 10 µM: Rattus norvegicus, PC-12, 48 h, read-out: rotenone (surviving PC12 cells, MTT 570 nm); for protective effect on rotenone injury to PC12 cells: statement in words
How it was run: as §1

Coxsackie virus B6 = assay: Coxsackie virus activity assay (CPE in Vero cells); conditions: Vero
HCV = assay: Anti-hepatitis C virus (HCV) activity assay (HCV RNA in Huh7.5 cells); conditions: for EC50: Hepatitis C virus, Huh7.5, 72 h, read-out: HCV EC50; for anti-HCV viral activity: statement in words
Protocol: Inoculate Huh7.5 cells into 96-well plates to a density of 3×10^4 cells/cm^2, culture for 24h, infect the cells with 45 IU/cell HCV supernatant, meanwhile, add drug solutions or solvent control for treatment.

[4] = MT-4 cells, HIV-1 III B 100TCID50, 96 h, P24 antigen
[5] = 10 μM test compound, 48 h, Control 100.0 ± 9.2, Model 69.3 ± 4.1
[6] = 10 μM test compound, 4 μM rotenone, 48 h, Control 100.0 ± 8.9, Model 73.2 ± 7.8
[7] = read-out: COX-B6 IC50, Vero cells, about 100TCID50, CPE, Reed-Muench
[8] = Huh7.5 cells, 72 h, HCV RNA by RT-PCR, Reed-Muench

Row | SMILES | IC50 (HIV-1 III B virus; [4]) | anti-HIV viral activity (HIV-1 III B virus) | IC50 [1] | anti-influenza virus activities compared with the lead compound cajanine [1] | viability at 10 µM (PC12 cells [2]; [5]) | viability at 10 µM (PC12 cells [3]; [6]) | IC50 (Coxsackie virus B6; [7]) | EC50 (HCV; [8]) | anti-HCV viral activity (HCV) | protective effect on serum-deprived injury to PC12 cells (PC12 cells [2]) | protective effect on rotenone injury to PC12 cells (PC12 cells [3]) | EC50 (HCV) | IC50 (HIV-1 III B virus) | viability at 10 µM (PC12 cells [2]) | viability at 10 µM (PC12 cells [3]) | IC50 (Coxsackie virus B6; read-out: COX-B6 IC50)
1 | COc1cc(/C=C/CCc2ccccc2)c(C(=O)O)c(O)c1CC=C(C)C [Compound 1l, 2-hydroxy-3-isopentenyl-4-methoxy-6-[(E)-4′-phenylbuten-1′-yl]benzoic acid] | 1.64 µg/mL (≈ 4.48 µM) | stronger anti-HIV, HCV viral activities | 0.36 µg/mL (≈ 0.982 µM) | significantly stronger than the lead compound cajanine | 27.2 ± 7.2% | 58.4 ± 1.4% | > 2.06 µg/mL | 0.65 µg/mL (≈ 1.77 µM) | stronger anti-HIV, HCV viral activities | – | – | – | – | – | – | –
2 | Oc1cc(O)cc(/C=C/Cc2ccccc2)c1 [Compound 21b, 1,3-dihydroxy-5-[(E)-3-phenylpropen-1-yl]benzene] | 0.88 µg/mL (≈ 3.89 µM) | – | 2.54 µg/mL (≈ 11.2 µM) | – | 74.6 ± 3.5% | 78.9 ± 6.8% | 3.26 µg/mL (≈ 14.4 µM) | 1.47 µg/mL (≈ 6.5 µM) | – | – | – | – | – | – | – | –
3 | COc1cc(/C=C/C2CCCCC2)cc(O)c1CC=C(C)C [Compound 10p, 2-isopentenyl-3-methoxy-5-[(E)-2-cyclohexylvinyl]phenol] | 7.19 µg/mL (≈ 23.9 µM) | – | 2.65 µg/mL (≈ 8.82 µM) | – | 84.6 ± 2.7% | 86.7 ± 9.1% | > 6.19 µg/mL | 2.95 µg/mL (≈ 9.82 µM) | – | the strongest activities | the strongest activities | – | – | – | – | –
4 | COC(=O)c1c(/C=C/c2c(OC)cccc2OC)cc(OC)c(CC=C(C)C)c1O [Compound 8d, methyl 2-hydroxy-3-isopentenyl-4-methoxy-6-[(E)-2,6-dimethoxystyryl]-benzoate] | 0.86 µg/mL (≈ 2.08 µM) | – | > 6.17 µg/mL | – | 82 ± 3.2% | 84.4 ± 3.6% | > 9.26 µg/mL | 5.17 µg/mL (≈ 12.5 µM) | – | the strongest activities | the strongest activities | – | – | – | – | –
5 | COc1cc(/C=C/c2cccs2)c(C(=O)O)c(O)c1CC=C(C)C [Compound 1j, 2-hydroxy-3-isopentenyl-4-methoxy-6-[(E)-2-(thien-2-yl)ethenyl]benzoic acid] | 1.02 µg/mL (≈ 2.96 µM) | stronger anti-HIV, HCV viral activities | > 0.27 µg/mL | – | 27.7 ± 6.3% | 59.8 ± 7.7% | 2.13 µg/mL (≈ 6.18 µM) | 0.77 µg/mL (≈ 2.24 µM) | stronger anti-HIV, HCV viral activities | – | – | – | – | – | – | –
6 | COc1cc(CCc2ccccc2)c(C(=O)O)c(O)c1CC=C(C)C [Compound 37, 2-hydroxy-3-isopentenyl-4-methoxy-6-phenethyl benzoic acid] | 2.09 µg/mL (≈ 6.14 µM) | – | > 22.2 µg/mL | – | 29 ± 11.2% | 60.4 ± 7.8% | > 2.05 µg/mL | 12.2 µg/mL (≈ 35.8 µM) | – | – | – | – | – | – | – | –
7 | COC(=O)c1c(CCc2ccccc2)cc(OC)c(CC=C(C)C)c1O [Compound 36, methyl 2-hydroxy-3-isopentenyl-4-methoxy-6-phenethyl benzoate] | 1.06 µg/mL (≈ 2.99 µM) | – | > 2.46 µg/mL | – | 41 ± 15.4% | 72.2 ± 12.2% | > 2.46 µg/mL | 3.86 µg/mL (≈ 10.9 µM) | – | – | – | – | – | – | – | –
8 | Oc1cc(O)cc(/C=C/c2cc(O)c(O)c(O)c2)c1 [Compound 21k, 1,3-dihydroxy-5-[(E)-3,4,5-trihydroxystyryl]benzene] | 10.3 µg/mL (≈ 39.7 µM) | – | 0.54 µg/mL (≈ 2.07 µM) | significantly stronger than the lead compound cajanine | 74.5 ± 5.8% | 71.3 ± 8% | 0.78 µg/mL (≈ 3 µM) | 8.36 µg/mL (≈ 32.1 µM) | – | – | – | – | – | – | – | –
9 | COc1cc(/C=C/Cc2ccccc2)cc(O)c1CC=C(C)C [Compound 10k, 2-isopentenyl-3′-methoxy-5-[(E)-3′-phenylpropen-1′-yl]phenol] | 1.06 µg/mL (≈ 3.44 µM) | – | 0.89 µg/mL (≈ 2.89 µM) | significantly stronger than the lead compound cajanine | 85.6 ± 3.2% | 84.6 ± 2.4% | > 2.06 µg/mL | 0.99 µg/mL (≈ 3.21 µM) | – | the strongest activities | the strongest activities | – | – | – | – | –
10 | COc1cc(/C=C/C2CCCCC2)c(C(=O)O)c(O)c1CC=C(C)C [Compound 1p, 2-hydroxy-3-isopentenyl-4-methoxy-6-[(E)-2-cyclohexyl-vinyl]benzoic acid] | 1.06 µg/mL (≈ 3.08 µM) | – | 8.62 µg/mL (≈ 25 µM) | – | 81.2 ± 3.2% | 82 ± 2.3% | > 2.06 µg/mL | – | – | the strongest activities | the strongest activities | 8.62 µg/mL (≈ 25 µM) | – | – | – | –
11 | COc1cc(/C=C/c2ccccc2)c(C(=O)Nc2ccccc2)c(O)c1CC=C(C)C [Compound 9g, N-phenyl-2-hydroxy-3-isopentenyl-4-methoxy-6-[(E)-styryl]benzamide] | 0.79 µg/mL (≈ 1.91 µM) | – | 0.84 µg/mL (≈ 2.03 µM) | – | 89.4 ± 2.3% | 87.4 ± 1.9% | 1.59 µg/mL (≈ 3.85 µM) | 5.1 µg/mL (≈ 12.3 µM) | – | the strongest activities | the strongest activities | – | – | – | – | –
12 | COC(=O)c1c(O)cc(OC)c(CC=C(C)C)c1/C=C/c1ccccc1 [Compound 18, methyl 2-hydroxy-4-methoxy-5-isopentenyl-6-[(E)-styryl]benzoate] | 0.34 µg/mL (≈ 0.965 µM) | – | > 18.5 µg/mL | – | 77.8 ± 6.3% | 74.9 ± 2.9% | > 6.17 µg/mL | 8.51 µg/mL (≈ 24.1 µM) | – | – | – | – | – | – | – | –
13 | COc1cc(/C=C/c2ccc(O)cn2)c(C(=O)O)c(O)c1CC=C(C)C [Compound 1y] | 0.63 µg/mL (≈ 1.77 µM) | stronger anti-HIV, HCV viral activities | 4.25 µg/mL (≈ 12 µM) | – | 87.6 ± 1.6% | 89.7 ± 1.9% | 5.84 µg/mL (≈ 16.4 µM) | 0.86 µg/mL (≈ 2.42 µM) | stronger anti-HIV, HCV viral activities | – | – | – | – | – | – | –
14 | COc1cc(/C=C/c2cc(OC)c(OC)c(OC)c2)c(C(=O)O)c(O)c1CC=C(C)C [Compound 1u, 2-hydroxy-3-isopentenyl-4-methoxy-6-[(E)-(3,4,5-trimethoxystyryl)]benzoic acid] | 0.16 µg/mL (≈ 0.373 µM) | stronger anti-HIV, HCV viral activities | 0.21 µg/mL (≈ 0.49 µM) | significantly stronger than the lead compound cajanine | 89.3 ± 2.3% | 90 ± 3.2% | 0.14 µg/mL (≈ 0.327 µM) | 0.84 µg/mL (≈ 1.96 µM) | stronger anti-HIV, HCV viral activities | the strongest activities | the strongest activities | – | – | – | – | –
15 | COc1cc(/C=C/c2ccccc2)c(C(=O)O)c(OC(C)=O)c1CC=C(C)C [Compound 24h] | 1.33 µg/mL (≈ 3.5 µM) | – | 0.45 µg/mL (≈ 1.18 µM) | – | 88.9 ± 5.4% | 87.8 ± 6.3% | 1.21 µg/mL (≈ 3.18 µM) | 2.39 µg/mL (≈ 6.28 µM) | – | – | – | – | – | – | – | –
16 | COc1cc(/C=C/c2ccccc2)cc(O)c1CCC(C)C [Compound 10w, 2-isopentyl-3-methoxy-5-[(E)-styryl]phenol] | 0.75 µg/mL (≈ 2.53 µM) | – | 0.53 µg/mL (≈ 1.79 µM) | significantly stronger than the lead compound cajanine | 79.1 ± 4.6% | 78.2 ± 5.8% | 2.45 µg/mL (≈ 8.27 µM) | 2.59 µg/mL (≈ 8.74 µM) | – | – | – | – | – | – | – | –
17 | COc1cc(/C=C/c2cccc(C)c2)c(C(=O)O)c(O)c1CC=C(C)C [Compound 1f, 2-hydroxy-3-isopentenyl-4-methoxy-6-[(E)-3-methylstyryl]benzoic acid] | 1.45 µg/mL (≈ 4.11 µM) | stronger anti-HIV, HCV viral activities | 0.48 µg/mL (≈ 1.36 µM) | significantly stronger than the lead compound cajanine | 31.7 ± 10.3% | 58 ± 4.5% | 4.65 µg/mL (≈ 13.2 µM) | 0.53 µg/mL (≈ 1.5 µM) | stronger anti-HIV, HCV viral activities | – | – | – | – | – | – | –
18 | COc1cc(/C=C/c2ccccc2)c(C(=O)O)c(OC(=O)CN)c1CC=C(C)C [Compound 24b, 2-Aminoacetoxy-3-isopentenyl-4-methoxy-6-[(E)-styryl]benzoic acid] | 2.01 µg/mL (≈ 5.08 µM) | – | 4.25 µg/mL (≈ 10.7 µM) | – | 89.7 ± 5.6% | 88.3 ± 5.2% | 1.24 µg/mL (≈ 3.14 µM) | 1.68 µg/mL (≈ 4.25 µM) | – | – | – | – | – | – | – | –
19 | COc1cc(/C=C/c2ccc(F)cc2)cc(O)c1CC=C(C)C [Compound 10a, 2-isopentenyl-3-methoxy-5-[(E)-(4′-fluorostyryl)]phenol] | – | – | > 0.69 µg/mL | significantly stronger than the lead compound cajanine | – | – | – | – | – | – | – | 1.6 µg/mL (≈ 5.12 µM) | 2.02 µg/mL (≈ 6.47 µM) | 78.2 ± 4.1% | 79.8 ± 5.6% | 6.32 µg/mL (≈ 20.2 µM)
